The assay deals with P388 leukemia ip, CD2F1 mice, survival T/C. As to the kind of experiment: NCI In Vivo Anticancer Drug Screen. Data for tumor model P388 Leukemia (intraperitoneal) in CD2F1 (CDF1) mice. Conditions: endpoint: median survival time, higher = longer survival. In short, it runs like this:
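Mice carrying the transplanted tumor received test compound or vehicle. Survival was recorded in each group, and the value is the treated-group measurement divided by that of the vehicle-treated control group.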

Setting [1] is: dose: 50.0 mg/kg/injection, schedule: Q01DX005 (ip), vehicle: Klucel (hydroxypropylcellulose) (HPC).
Setting [2] is: dose: 50.0 mg/kg/injection, schedule: Q01DX005 (ip), vehicle: saline with Tween-80.
Setting [3] is: dose: 100.0 mg/kg/injection, schedule: Q01DX005 (ip), vehicle: saline with Tween-80.
Setting [4] is: dose: 200.0 mg/kg/injection, schedule: Q01DX005 (ip), vehicle: saline with Tween-80.
[5] abbreviates: dose: 12.5 mg/kg/injection, schedule: Q01DX009 (ip), vehicle: saline with Tween-80.
The mark [6] stands for this setting: dose: 25.0 mg/kg/injection, schedule: Q01DX009 (ip), vehicle: saline with Tween-80.
[7] abbreviates: dose: 50.0 mg/kg/injection, schedule: Q01DX009 (ip), vehicle: saline with Tween-80.
Setting [8] is: dose: 100.0 mg/kg/injection, schedule: Q01DX009 (ip), vehicle: saline with Tween-80.
The mark [9] stands for this setting: dose: 200.0 mg/kg/injection, schedule: Q01DX009 (ip), vehicle: saline with Tween-80.

Structures are written as SMILES. “And” between values parts separate entries of the source, which are not always exact repeats. Equal values may be shown once. Toxic doses and inconclusive results are not listed.

Take `COc1ccc(C2c3cc4c(cc3OC3(N5CCCC5)CCCCC23)OCO4)cc1` (stereo not drawn): the T/C by setting is: (dose: 60.0 mg/kg/injection, schedule: Q01DX005 (ip), vehicle: Klucel (hydroxypropylcellulose) (HPC)) 99 % of control; (dose: 120.0 mg/kg/injection, schedule: Q01DX005 (ip), vehicle: Klucel (hydroxypropylcellulose) (HPC)) 94 % of control; (dose: 240.0 mg/kg/injection, schedule: Q01DX005 (ip), vehicle: Klucel (hydroxypropylcellulose) (HPC)) 88 % of control.

As for `COC(/C=N/OC(=O)c1ccc([N+](=O)[O-])cc1)c1ccccc1` (stereo not drawn), the T/C runs as follows: (dose: 25.0 mg/kg/injection, schedule: Q04DX003 (ip), vehicle: saline with Tween-80) 89 % of control and 92 % of control; (dose: 50.0 mg/kg/injection, schedule: Q04DX003 (ip), vehicle: saline with Tween-80) 92 % of control and 94 % of control.

Consider `O=C1OC(c2ccccc2)=N/C1=C/c1c(-c2ccccc2)c(-c2ccccc2)c2n1CCC2`, for which the T/C under setting [1] is 86 % of control; the T/C (dose: 100.0 mg/kg/injection, schedule: Q01DX005 (ip), vehicle: Klucel (hydroxypropylcellulose) (HPC)) is 86 % of control; the T/C (dose: 200.0 mg/kg/injection, schedule: Q01DX005 (ip), vehicle: Klucel (hydroxypropylcellulose) (HPC)) is 86 % of control.

In the case of `CC1CC(C)CC(C)C(O)/C(C#N)=C/C=C/CC(C2CCCC2C(=O)O)OC(=O)CC(O)C(C)C1` (stereo not drawn), the T/C is, setting by setting: (dose: 0.5 mg/kg/injection, schedule: Q01DX009 (ip), vehicle: Klucel (hydroxypropylcellulose) (HPC)) 163 % of control and 169 % of control; (dose: 0.78 mg/kg/injection, schedule: Q01DX009 (ip), vehicle: Klucel (hydroxypropylcellulose) (HPC)) 150 % of control; (dose: 1.0 mg/kg/injection, schedule: Q01DX009 (ip), vehicle: Klucel (hydroxypropylcellulose) (HPC)) 151 % of control and 152 % of control; (dose: 1.56 mg/kg/injection, schedule: Q01DX009 (ip), vehicle: Klucel (hydroxypropylcellulose) (HPC)) 151 % of control; (dose: 3.13 mg/kg/injection, schedule: Q01DX009 (ip), vehicle: Klucel (hydroxypropylcellulose) (HPC)) 153 % of control.

With `COC(=O)C(Cc1c[nH]c2ccccc12)NC(=O)C(Cc1cnc[nH]1)N(C(=O)OCc1ccccc1)C(=O)OCc1ccccc1` (stereo not drawn), the T/C is 100 % of control under setting [2], 89 % of control under setting [3] and 98 % of control under setting [4].

Take `CC1=C/C(=C(\c2cc(C)c(O)c(C(=O)O)c2)c2c(Cl)cccc2Cl)C=C(C(=O)O)C1=O`: the T/C reads like this: under setting [2], 103 % of control; under setting [3], 100 % of control; under setting [4], 100 % of control.

On to `O=C(Nc1ccc(C2=NCCN2)cc1)c1ccc(C(=O)Nc2ccc(C3=NCCN3)cc2)c(Cl)c1`, for which the T/C runs as follows: (dose: 0.2 mg/kg/injection, schedule: Q01DX009 (ip), vehicle: saline with Tween-80) 99 % of control; (dose: 0.39 mg/kg/injection, schedule: Q01DX009 (ip), vehicle: saline with Tween-80) 117 % of control; (dose: 0.78 mg/kg/injection, schedule: Q01DX009 (ip), vehicle: saline with Tween-80) 122 % of control; (dose: 20.0 mg/kg/injection, schedule: Q01DX010 (ip), vehicle: water) 163 % of control; (dose: 45.0 mg/kg/injection, schedule: Q04DX003 (ip), vehicle: saline) 95 % of control.

Take `CN(C)CCC(=O)c1cccs1`: the T/C (dose: 50.0 mg/kg/injection, schedule: Q01DX009 (ip), vehicle: saline) was 107 % of control and the T/C (dose: 100.0 mg/kg/injection, schedule: Q01DX009 (ip), vehicle: saline) is 105 % of control.

`Cc1ccc(NC(=O)/C(Cl)=C(\Cl)C(=O)O)cc1C`: the T/C by setting is: (dose: 3.75 mg/kg/injection, schedule: Q01DX005 (ip), vehicle: saline with Tween-80) 96 % of control; (dose: 7.5 mg/kg/injection, schedule: Q01DX005 (ip), vehicle: saline with Tween-80) 102 % of control; (dose: 15.0 mg/kg/injection, schedule: Q01DX005 (ip), vehicle: saline with Tween-80) 103 % of control and 110 % of control; (dose: 60.0 mg/kg/injection, schedule: Q01DX005 (ip), vehicle: saline with Tween-80) 104 % of control.

For `O=c1[nH]cncc1CCC1OCCO1`, the T/C runs as follows: (dose: 60.0 mg/kg/injection, schedule: Q01DX005 (ip), vehicle: saline) 97 % of control; (dose: 120.0 mg/kg/injection, schedule: Q01DX005 (ip), vehicle: saline) 98 % of control; (dose: 240.0 mg/kg/injection, schedule: Q01DX005 (ip), vehicle: saline) 103 % of control.

With `CC1=C(O)C(=O)C(c2c(C)cc(C)c(Br)c2C)=C(O)C1=O`, the T/C runs as follows: (dose: 6.25 mg/kg/injection, schedule: Q01DX005 (ip), vehicle: Klucel (hydroxypropylcellulose) (HPC)) 100 % of control and 104 % of control; (dose: 12.5 mg/kg/injection, schedule: Q01DX005 (ip), vehicle: Klucel (hydroxypropylcellulose) (HPC)) 104 % of control and 117 % of control and 118 % of control; (dose: 25.0 mg/kg/injection, schedule: Q01DX005 (ip), vehicle: Klucel (hydroxypropylcellulose) (HPC)) 104 % of control and 117 % of control; under setting [1], 116 % of control and 94 % of control.

For `c1cc(Nc2ccc(Nc3ccc(CN4CCCCC4)cc3)cc2)ccc1CN1CCCCC1`, the T/C is 105 % of control (dose: 12.5 mg/kg/injection, schedule: Q01DX009 (ip), vehicle: saline + Tween-80 + alcohol); 103 % of control under setting [5]; 111 % of control and 114 % of control (dose: 25.0 mg/kg/injection, schedule: Q01DX009 (ip), vehicle: saline + Tween-80 + alcohol); 107 % of control under setting [6]; 114 % of control and 115 % of control (dose: 50.0 mg/kg/injection, schedule: Q01DX009 (ip), vehicle: saline + Tween-80 + alcohol); 111 % of control under setting [7]. Further, the T/C runs as follows: (dose: 100.0 mg/kg/injection, schedule: Q01DX009 (ip), vehicle: saline + Tween-80 + alcohol) 117 % of control and 118 % of control; under setting [8], 99 % of control; (dose: 200.0 mg/kg/injection, schedule: Q01DX009 (ip), vehicle: saline + Tween-80 + alcohol) 124 % of control; under setting [9], 106 % of control; (dose: 400.0 mg/kg/injection, schedule: Q01DX009 (ip), vehicle: saline with Tween-80) 114 % of control.

In the case of `CN1OC(=O)OC2(CCCCC2)C1=O`, the T/C runs as follows: (dose: 50.0 mg/kg/injection, schedule: Q01DX005 (ip), vehicle: saline) 96 % of control; (dose: 100.0 mg/kg/injection, schedule: Q01DX005 (ip), vehicle: saline) 99 % of control; (dose: 200.0 mg/kg/injection, schedule: Q01DX005 (ip), vehicle: saline) 96 % of control.

In the case of `CC1(C)C(=O)C=CC2(C)C1CC(=O)C1(C)C2CCC2(C)C(c3ccoc3)OC(=O)C3OC321` (stereo not drawn), the T/C reads like this: (dose: 1.5 mg/kg/injection, schedule: Q01DX009 (ip), vehicle: Klucel (hydroxypropylcellulose) (HPC)) 98 % of control and 102 % of control; (dose: 3.0 mg/kg/injection, schedule: Q01DX009 (ip), vehicle: Klucel (hydroxypropylcellulose) (HPC)) 98 % of control and 102 % of control; (dose: 6.0 mg/kg/injection, schedule: Q01DX009 (ip), vehicle: Klucel (hydroxypropylcellulose) (HPC)) 91 % of control and 96 % of control; (dose: 12.0 mg/kg/injection, schedule: Q01DX009 (ip), vehicle: Klucel (hydroxypropylcellulose) (HPC)) 102 % of control and 96 % of control; (dose: 24.0 mg/kg/injection, schedule: Q01DX009 (ip), vehicle: Klucel (hydroxypropylcellulose) (HPC)) 100 % of control and 102 % of control.

For the compound `CCCCCCCCCCCCSC1=C(Cl)C(=O)C(OC)=C(OC)C1=O`, the T/C is, setting by setting: (dose: 6.0 mg/kg/injection, schedule: Q01DX Z (ip), vehicle: saline) 103 % of control; (dose: 6.25 mg/kg/injection, schedule: Q01DX009 (ip), vehicle: saline with Tween-80) 105 % of control; (dose: 12.0 mg/kg/injection, schedule: Q01DX Z (ip), vehicle: saline) 100 % of control; under setting [5], 108 % of control; under setting [6], 121 % of control; (dose: 25.0 mg/kg/injection, schedule: Q01DX Z (ip), vehicle: saline) 100 % of control. Also, the T/C runs as follows: under setting [7], 119 % of control; (dose: 50.0 mg/kg/injection, schedule: Q01DX Z (ip), vehicle: saline) 92 % of control.

Take `O=C(N/C(=C\c1ccccc1)C(=O)N1CCNCC1)c1ccccc1`: the T/C was 93 % of control under setting [2], 89 % of control under setting [3] and 87 % of control under setting [4].

Take `CCCCCCN(CCCCCC)c1nc(Cl)nc(NCC)n1`: the T/C reads like this: under setting [2], 111 % of control; under setting [3], 103 % of control; under setting [4], 103 % of control.

Consider `CCCCN1C(=O)/C(=C/c2ccc(OC)cc2)SC1=S`, for which the T/C runs as follows: under setting [7], 100 % of control; under setting [8], 94 % of control; under setting [9], 90 % of control.
